Like-named read-outs stand apart in the source and are kept apart here.
How the values were obtained:
[1] = test system: corn earworm (Helicoverpa zea)
[2] = test system: beet armyworm (Spodoptera exigua)
[3] = test system: fruit fly (Drosophila melanogaster)
[4] = test system: beet armyworm (Spodoptera exigua); test: Insecticidal test for beet armyworm in injection assays; details: 1 h, read-out: BAW SYM: % showing intoxicated symptoms at 10 μg/larva against beet armyworm in injection tests
[5] = test system: cotton aphid (Aphis gossypii); test: Insecticidal test for cotton aphid, foliar spray on squash; details: for pest or weed control at 200 ppm / pest or weed control at 50 ppm: Aphis gossypii, foliar, 72 h; for pest or weed control at 200 ppm: read-out: CA 200: % control at 200 ppm against cotton aphid in foliar spray tests; for pest or weed control at 50 ppm: read-out: CA 50: % control at 50 ppm against cotton aphid in foliar spray tests; for % Control at ppm, against cotton aphid: 0.195: 0.195 ppm
[6] = test system: yellow fever mosquito (Aedes aegypti) larvae; test: whole plant or invertebrate; assay type: in vivo; details: 72 h, read-out: YFM 26: % control at 26 ppm against yellow fever mosquito in submerge tests
[7] = test system: sweet potato whitefly (Bemisia tabaci); test: Insecticidal test for sweet potato whitefly, foliar spray on cotton; details: Bemisia tabaci, in Gossypium hirsutum, foliar, read-out: SPW 200: % control at 200 ppm against sweet potato whitefly in foliar spray tests
[8] = test system: green peach aphid (Myzus persicae); test: Insecticidal test for green peach aphid, foliar spray on cabbage seedlings; details: for % Control at ppm, against green peach aphid: 0.78: 0.78 ppm; for % Control at ppm, against green peach aphid: 3.12: 3.12 ppm
[9] = 50 μg/cm2, second-instar larvae, 5 days
[10] = 12.5 ppm, rundown assay, 3 days

Compound	CEW 50: % mortality at 50 μg/cm2 against corn earworm in dietary tests [1, 9]	BAW 50: % mortality at 50 μg/cm2 against beet armyworm in dietary tests [2, 9]	FF 25: % mortality at 25 μg/cm2 against fruit fly in dietary tests ([3]; 25 μg/cm2, 48 h)	pest or weed control at 0.01 mg [4] [%]	pest or weed control at 200 ppm [5] [%]	pest or weed control at 26 ppm [6] [%]	pest or weed control at 50 ppm [5] [%]	also measured
CC(CS(C)(=O)=N[N+](=O)[O-])c1ccc(Cl)nc1 (stereo not shown) [Compound 4, 2-Chloro-5-(1-methyl-2-{methyl(oxido)[oxido(oxo)hydrazono]-λ^4-sulfanyl}ethyl)pyridine]	G (Inactive)	G (Inactive)	G (Inactive)	< 50	< 50			
N#CN=S1(=O)CCCCC1Cc1ccc(Cl)nc1 (stereo not shown) [Compound 5, 2-[(6-chloropyridin-3-yl)methyl]-1-oxidohexahydro-1λ^4-thiopyran-1-ylidenecyanamide]	G (Inactive)	G (Inactive)	G (Inactive)	50 to 59	90 to 100	50 to 59	90 to 100	
N#CN=S1(=O)CCCC1 [Compound 12, 1-Oxidotetrahydro-1H-1λ^4-thien-1-ylidenecyanamide]				90 to 100	90 to 100		90 to 100	CEW 50: % mortality at 50 μg/cm2 against corn earworm in dietary tests ([1]; in vivo): D (key: A: 90-100; B: 80-89; C: 70-79; D: 60-69; E: 50-59; F: Less than 50; G: Inactive; H: Not tested); BAW 50: % mortality at 50 μg/cm2 against beet armyworm in dietary tests ([2]; in vivo): F (key: A: 90-100; B: 80-89; C: 70-79; D: 60-69; E: 50-59; F: Less than 50; G: Inactive; H: Not tested); FF 25: % mortality at 25 μg/cm2 against fruit fly in dietary tests ([3]; in vivo): D (key: A: 90-100; B: 80-89; C: 70-79; D: 60-69; E: 50-59; F: Less than 50; G: Inactive; H: Not tested); FF SYM: % showing intoxicated symptoms at 25 μg/cm2 against fruit fly in dietary tests ([3]; in vivo): A (key: A: 90-100; B: 80-89; C: 70-79; D: 60-69; E: 50-59; F: Less than 50; G: Inactive; H: Not tested); % Control at ppm, against cotton aphid: 0.78 ([5]; in vivo): E (key: A: 90-100; B: 80-89; C: 70-79; D: 60-69; E: 50-59; F: Less than 50; G: Inactive; H: Not tested); % Control at ppm, against cotton aphid: 3.12 ([5]; in vivo): E (key: A: 90-100; B: 80-89; C: 70-79; D: 60-69; E: 50-59; F: Less than 50; G: Inactive; H: Not tested); % Control at ppm, against cotton aphid: 12.5 ([5]; in vivo): A (key: A: 90-100; B: 80-89; C: 70-79; D: 60-69; E: 50-59; F: Less than 50; G: Inactive; H: Not tested); % Control at ppm, against cotton aphid: 50 ([5]; in vivo): A (key: A: 90-100; B: 80-89; C: 70-79; D: 60-69; E: 50-59; F: Less than 50; G: Inactive; H: Not tested); pest or weed control at 200 ppm [7]: 80 to 89%; % Control at ppm, against green peach aphid: 12.5 ([8]; in vivo): F (key: A: 90-100; B: 80-89; C: 70-79; D: 60-69; E: 50-59; F: Less than 50; G: Inactive; H: Not tested); % Control at ppm, against green peach aphid: 50 ([8]; in vivo): F (key: A: 90-100; B: 80-89; C: 70-79; D: 60-69; E: 50-59; F: Less than 50; G: Inactive; H: Not tested)
CS(=O)(CCc1ccc(Cl)nc1)=NC#N (stereo not shown) [Compound 13]	G (Inactive)	G (Inactive)	G (Inactive)	< 50	90 to 100		90 to 100	% Control at ppm, against cotton aphid: 0.195 ([5]; rundown assay): F (Less than 50); % Control at ppm, against cotton aphid: 0.78 ([5]; 0.78 ppm, rundown assay): A (90-100); % Control at ppm, against cotton aphid: 3.12 ([5]; 3.12 ppm, rundown assay): A (90-100); % Control at ppm, against cotton aphid: 12.5 ([5]; 12.5 ppm, rundown assay): A (90-100); % Control at ppm, against cotton aphid: 50 ([5]; 50 ppm, rundown assay): A (90-100); pest or weed control at 200 ppm [7]: 90 to 100%; % Control at ppm, against green peach aphid: 0.78 ([8]; rundown assay, 3 days): F (Less than 50); % Control at ppm, against green peach aphid: 3.12 ([8]; rundown assay, 3 days): C (70-79); % Control at ppm, against green peach aphid: 12.5 [8, 10]: C (70-79); % Control at ppm, against green peach aphid: 50 ([8]; 50 ppm, rundown assay, 3 days): B (80-89)
N#CN=S1(=O)CCCC1Cc1ccc(Cl)nc1 (stereo not shown) [Compound 14]	G (Inactive)	G (Inactive)	F (Less than 50)		90 to 100	90 to 100	90 to 100	
CC[S@@](=O)(C[C@H](C)c1ccc(Cl)nc1)=NC#N [Compound 16]	G (Inactive)	G (Inactive)	G (Inactive)	< 50	90 to 100		90 to 100	
CCS(=O)(=NC#N)C(C)c1ccc(Cl)nc1 (stereo not shown) [Compound 18]	G (Inactive)	G (Inactive)	G (Inactive)	< 50	90 to 100		90 to 100	pest or weed control at 200 ppm [7]: 80 to 89%
CC[S@](=O)(=NC#N)[C@@H](C)c1ccc(Cl)nc1 [Compound 19]	G (Inactive)	G (Inactive)	F (Less than 50)		90 to 100		90 to 100	pest or weed control at 200 ppm [7]: 70 to 79%
N#CN=S1(=O)CCC[C@H]1Cc1ccc(Cl)nc1 (stereo partly shown) [Compound 21]	G (Inactive)	G (Inactive)	G (Inactive)		90 to 100	80 to 89	90 to 100	
N#CN=S1(=O)CCCC1c1ccccc1 (stereo not shown) [Compound 22, (1-oxido-2-phenyltetrahydro-1H-11^4-thien-1-ylidene)cyanamide]	G (Inactive)	G (Inactive)	G (Inactive)	< 50	90 to 100		80 to 89	
CS(=O)(=NC#N)C(F)c1ccc(Cl)nc1 (stereo not shown) [Compound 25]	G (Inactive)	G (Inactive)	C (70-79)		90 to 100	90 to 100	90 to 100	FF SYM: % showing intoxicated symptoms at 25 μg/cm2 against fruit fly in dietary tests ([3]; 25 μg/cm2, 4 h): B (80-89)
CS(=O)(=NC#N)C(Cc1ccccc1)c1ccc(Cl)nc1 (stereo not shown) [Compound 27]	G (Inactive)	G (Inactive)	G (Inactive)		90 to 100	80 to 89	90 to 100	
CC(C)C1CCCS1(=O)=NC#N (stereo not shown) [Compound 32]	G (Inactive)	G (Inactive)	G (Inactive)	50 to 59	80 to 89			
CC(c1ccc(Cl)nc1)S(C)(=O)=N[N+](=O)[O-] (stereo not shown) [Compound 36]	G (Inactive)	G (Inactive)	F (Less than 50)		90 to 100		90 to 100	FF SYM: % showing intoxicated symptoms at 25 μg/cm2 against fruit fly in dietary tests ([3]; 25 μg/cm2, 4 h): F (Less than 50); % Control at ppm, against cotton aphid: 0.049 ([5]; 0.049 ppm, rundown assay): F (Less than 50); % Control at ppm, against cotton aphid: 0.195 ([5]; rundown assay): F (Less than 50); % Control at ppm, against cotton aphid: 0.78 ([5]; 0.78 ppm, rundown assay): C (70-79); % Control at ppm, against cotton aphid: 3.12 ([5]; 3.12 ppm, rundown assay): A (90-100); % Control at ppm, against cotton aphid: 12.5 ([5]; 12.5 ppm, rundown assay): A (90-100); % Control at ppm, against cotton aphid: 50 ([5]; 50 ppm, rundown assay): A (90-100); % Control at ppm, against green peach aphid: 0.049 ([8]; 0.049 ppm, rundown assay, 3 days): F (Less than 50); % Control at ppm, against green peach aphid: 0.195 ([8]; 0.195 ppm, rundown assay, 3 days): E (50-59); % Control at ppm, against green peach aphid: 0.78 ([8]; rundown assay, 3 days): D (60-69); % Control at ppm, against green peach aphid: 3.12 ([8]; rundown assay, 3 days): C (70-79); % Control at ppm, against green peach aphid: 12.5 [8, 10]: A (90-100); % Control at ppm, against green peach aphid: 50 ([8]; 50 ppm, rundown assay, 3 days): A (90-100)
CCS(=O)(CC(C)c1ccc(Cl)nc1)=N[N+](=O)[O-] (stereo not shown) [Compound 38]	G (Inactive)	G (Inactive)	G (Inactive)		90 to 100	< 50	80 to 89	
CC[S@](=O)(=N[N+](=O)[O-])[C@@H](C)c1ccc(Cl)nc1 [Compound 40]	G (Inactive)	G (Inactive)	G (Inactive)		80 to 89			
CCOc1ccc(S(C)(=O)=NC#N)cn1 (stereo not shown) [Compound 42, (6-Ethoxypyridin-3-yl)(methyl)oxido-λ^4-sulfanylidenecyanamide]	G (Inactive)	G (Inactive)	G (Inactive)		90 to 100		70 to 79	

Reference: patent US7795456B2, “Insecticidal N-substituted sulfoximines” (Dow AgroSciences LLC, priority 2004, dated 2010)
